Laboratory results: patent publication US20260125736A1, “FURIN SENSORS AND APPLICATIONS THEREOF” (FLAREON BIOTECH GMBH, priority 2023, published 2026)
One block for each substance: values may come before it. Primed or numbered codes have the meaning given here. Ends that are not written are not given here. * marks the point of attachment. Dabcyl′ = 4-((4-(dimethylamino)phenyl)azo)benzoic acid, CN(C)c1ccc(/N=N/c2ccc(C(=O)*)cc2)cc1; EDANS = O=S(=O)(O)c1cccc2c(NCCN*)cccc12

Columns and labels:
furin [1] = biological target: T1, furin (Homo sapiens, UniProt P09958); test: Peptide cleavage by furin, analysed by HPLC (AUC of main peak vs negative control without furin); conditions: cleavage of PSL via furin within 15 min; 0.1 mM peptide, 1 U furin, 37° C., n=3
HNSCC tissue = assay type: cell-based, human
furin [2] = biological target: T1, furin; test: Cleavage of FRET sensors by furin / illumination of C1S; assay type: biochemical; conditions: C1S 10 μM incubated with furin for 60 min, illuminated at 350 nm; compared with C1S without furin
Method: Negative controls were performed without furin. Experiments were performed n=3. The samples were analyzed using an Infinite M plex (Tecan trading AG, Mannedorf, Switzerland) with an excitation wavelength of λ=340 nm and an emission wavelength of A =490 nm.
Sensor C1S was incubated as described before under cleavage of FRET sensors with and without furin for 60 min and illuminated via Universal UV Lampe (CAMAG, Germany) with λ=350 nm.

HNSCC tumor tissue = test: FRET-based sensor tissue incubation (fluorescence, ex 340 nm / em 490 nm); assay type: cell-based, human; conditions: 10 μM sensor, incubation over 60 min, 37° C., cleavage determined against blank (intact sensor)
Method: All included patients were diagnosed with primary oral squamous cell carcinoma (OSCC). Patients suffering from other tumor entities as well as inoperable cases were excluded from this study.
After performing preoperative tumor staging and incisional biopsy to confirm the diagnosis, stage-appropriate tumor resection, lymph-node dissection, and reconstruction took place. Tumor resection was performed in the usual way, which included using separate margins for frozen section analysis in order to confirm in sano resection. […]
Tissues were stored on ice in sterile filtered in cell culture medium (RPMI-1640, Dutch modification, 10% FCS, 1% Penicillin/Streptomycin, Nystatin). […] After the 24h incubation, one of the tumor tissues was analyzed using FDA. […] The tumor tissue was incubated for 5 min and analyzed via Axio Observer.Z1 microscope equipped with an A-Plan 10×/0.25 Ph1 objective (Zeiss), 38 HE Green Fluorescent Protein (λex=450-490 nm, λem=500-550 nm) and a mercury vapor short-arc lamp.
Tissues were prepared as described before. […] The tissues were incubated at 37° C. and analyzed at t=0, 5, 10, 15, 20, 25, 30, 40, 50 and 60 min via an Infinite M plex (Tecan trading AG, Mannedorf, Switzerland) with an excitation wavelength of λ=340 nm and an emission wavelength of λ=490 nm. […]

T1 sequence (P09958 108-794): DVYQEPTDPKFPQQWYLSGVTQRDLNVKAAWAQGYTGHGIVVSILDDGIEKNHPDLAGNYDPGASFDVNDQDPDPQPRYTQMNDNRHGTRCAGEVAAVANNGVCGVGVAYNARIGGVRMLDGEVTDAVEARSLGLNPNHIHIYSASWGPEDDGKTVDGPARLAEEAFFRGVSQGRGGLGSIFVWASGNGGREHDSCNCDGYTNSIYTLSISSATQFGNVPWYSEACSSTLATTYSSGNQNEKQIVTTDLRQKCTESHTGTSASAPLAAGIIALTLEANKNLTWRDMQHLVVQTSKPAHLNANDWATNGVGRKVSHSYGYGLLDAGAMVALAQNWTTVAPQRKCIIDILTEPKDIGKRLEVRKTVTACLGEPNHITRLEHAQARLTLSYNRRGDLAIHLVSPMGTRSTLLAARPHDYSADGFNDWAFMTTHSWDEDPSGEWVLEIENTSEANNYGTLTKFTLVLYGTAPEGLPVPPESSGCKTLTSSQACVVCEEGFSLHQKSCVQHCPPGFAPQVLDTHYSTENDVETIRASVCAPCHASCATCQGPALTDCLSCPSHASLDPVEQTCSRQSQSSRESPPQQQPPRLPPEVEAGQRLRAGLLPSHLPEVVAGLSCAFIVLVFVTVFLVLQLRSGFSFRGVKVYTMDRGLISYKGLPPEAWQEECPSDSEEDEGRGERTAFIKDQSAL

Cleavage (furin [1]): 26.16%
Substance: RTAMSAGA [Z5]

Substance: Ac-K(Dabcyl)-RRARSVAS-E(Edans) (Ac-K(Dabcyl′)RRARSVASE(EDANS)) [C1S]
time after which a fluorescent signal difference between HNSCC and healthy tissue is visually recognizable (HNSCC tissue): 5 min | fluorescence observed visually after incubation with furin (furin [2]): distinct cyan fluorescence | fold increase of sensor cleavage of the tumor tissue compared to healthy tissue (HNSCC tumor tissue): > 2 fold

Substance: Ac-EG-K(Dabcyl)-RTAMTAGA-E(Edans)-GE (Ac-EGK(Dabcyl′)RTAMTAGAE(EDANS)GE) [Z3S]
time after which a fluorescent signal difference between HNSCC and healthy tissue is visually recognizable (HNSCC tissue): 35 min | visual difference between healthy and HNSCC tissues in the first 30 minutes (HNSCC tissue): no difference could be observed
